# “Also recorded” adds a separate entry of the source. Like-named read-outs stand apart in the source and are kept apart here.
# Assays:
# [1] = test system: human NCI-H460 lung tumor; test: NCI-H460 lung tumor xenograft efficacy study; format: in vivo
# Excerpt: The purpose of the study was to evaluate the antitumor efficacy of exemplary PEG topotecan conjugates along with unmodified topotecan when administered against subcutaneously (sc) implanted human NCI-H460 lung tumor xenografts in male athymic nude mice.
# Six-weeks-old male athymic nude mice were purchased from Charles River (Wilmington, Mass.) and acclimated in the laboratories prior to experimentation. […] Cages were changed twice weekly.
# Thirty-to-forty mg fragments of human NCI-H460 lung tumor were implanted sc in mice near the right axillary area using a 12-gauge trocar needle and allowed to grow.
# On each day of injection, a 15.625 mg/mL solution of PEG-topotecan (the amount of PEG-topotecan being 31.25 times the topotecan dosage) was prepared in saline. A portion of this solution was diluted with saline to the lower concentrations. All three solutions were quite viscous. A 0.5 mg/mL solution of topotecan was prepared in saline on each day of treatment. Lower dosages were achieved by diluting this solution with saline. All dosing solutions were administered by exact body weight using an injection volume of 0.2 mL/10 g of body weight. Both PEG-topotecan and topotecan solutions were prepared in subdued light with PEG-topotecan injected within two hours of preparation and topotecan injected within 30 minutes of preparation.
# The experiment consisted of six treatment groups of ten mice per group and one vehicle-treated control group also with ten mice for a total of 70 mice on the first day of treatment. Both PEG-topotecan and topotecan were administered intravenously (iv) as three injections given four days apart (q4d×3) at dosages of 10, 2.5, and 1 mg/kg/dose. The control group (group 1) was treated with the vehicle (saline), which was also administered iv q4d×3.
# The study was terminated 55 days after tumor implantation. Any animal whose tumor became ulcerated or reached 4,000 mg was euthanized prior to study termination.
# [2] = mouse, in vivo, iv
# Procedure: (§1) The experiment consisted of 3 treatment groups of 36 mice per group plus an untreated group of 3 mice for a total of 39 mice on the day of treatment. […] The above ‘topotecan-equivalent’ concentrations were calculated based on the topotecan content for each compound. […] At intervals (0.5, 1, 2, 4, 8, 12, 24, 72, 120, 168, 216 hr) following drug administration, 3 animals per treatment group were sacrificed, blood collected via cardiac puncture, and tumor tissue was excised. Tumor tissue was flash frozen and stored at −80° C. until analysis. Blood was processed to obtain plasma and stabilizers added as described for PK studies in beagle dogs. Samples were frozen and stored at −80° C. until analysis.
# (§2) Plasma and tumor-tissue were analyzed by LC/MS-MS for topotecan. Data was reported as ng/mL for plasma samples and ng/mg for tumor samples.
# [3] = test system: HT29 human colon tumor; test: HT29 colorectal cancer xenograft efficacy study; conditions: for Non-Specific Deaths / Regressions (100%) / Tumor Free on Day 99: 10 animals per group; for Growth Delay (T-C): based on median days to 1000 mg
# Excerpt: Six-weeks-old female athymic NCr-nu/nu mice were purchased from Charles River Laboratories, Inc. (Wilmington, Mass.) and acclimated in the laboratories for nine days prior to experimentation. The mice were housed in microisolator cages, up to five animals per cage. Each animal in the cage was identified by an ear punch. All mice were on a 12-hour light/dark cycle and received filtered municipal water and sterilizable rodent diet (Harlan-Teklad TD8656) ad libitum. Cages were changed twice weekly. The animals were observed daily and clinical signs were noted.
# Thirty-to-forty mg fragments of HT29 human colon tumor, propagated in an in vivo passage, were implanted sc on the right flank area of mice using a12-gauge trocar needle. The day of tumor implantation was designated as Day 0. […] A sufficient number of mice were implanted so that animals with tumors in a weight range as narrow as possible were selected for the trial on the day of treatment initiation (Day 14 after tumor implantation). Those animals selected with tumors in the proper size range on Day 14 were placed in several large cages and then assigned randomly to the various treatment groups.
# The lower dosage was achieved by further dilution with saline. The dosing solutions were treated as light-sensitive (formulated under amber lights and dispensed into brown bottles), stored at room temperature, and administered within 2 h of formulation. […] The lower dosage was achieved by further dilution with saline. The dosing solutions were treated as light-sensitive (formulated under amber lights and dispensed into brown bottles), were stored at room temperature, and were administered within 2 h of formulation. Topotecan was prepared at a concentration of 1.0 mg/mL on each day of treatment in saline. The lower dosages were achieved by further dilutions with saline. The dosing solutions were treated as light-sensitive (formulated under amber lights and dispensed into brown bottles), were kept on ice, and were administered within 30 min of formulation. Saline was obtained from Phoenix Pharmaceutical, Inc.
# The study consisted of a vehicle-treated control group and seven treatment groups with ten mice each for a total of 80 mice at the start of treatment. […] The control group was treated intravenously with saline on the same treatment schedule. All treatments were administered by exact body weight with the injection volume being 0.2 mL/10 g of body weight.
# Tumors were measured (the limit of detection being 32 mg (4×4 mm)) and the animals were weighed twice weekly starting with the first day of treatment. Tumor volume was determined by caliper measurements (mm) and using the formula for an ellipsoid sphere: L×W^2/2=mm^3, where L and W refer to the larger and smaller perpendicular dimensions collected at each measurement. This formula is also used to calculate tumor weight, assuming unit density (1 mm^3=1 mg). Individual tumor and body weight measurements were collected.
# Number of non-specific deaths, number of complete tumor regressions, number of tumor-free survivors on Day 99, and median number of days for the tumors in each group to reach 1,000 mg were calculated. The median time (in days) to reach 1,000 mg was used in the calculation of the overall delay in the growth of the median tumor (T-C; T=treated group; C=control group). Individual tumor weights, group median tumor weights, TIC (%) based on median tumor weights, group mean tumor weights, standard error of the mean tumor weights, the time for the individual animal's tumor to reach 1,000 mg, individual body weights, mean body weights, and the change in mean body weights relative to the mean body weight on the first day of collection (in grams and as a percent) were collected.
# [4] = humans, cited from earlier work
# [5] = Single-dose MTD study; set-up: species or system mice; conditions: mouse, in vivo, intravenous, topotecan-equivalent
# [6] = in vivo; conditions: mouse, iv
# Procedure: as §1, §2
# [7] = Maximum tolerated dose (tolerance) study, Q4D×3 iv; format: in vivo, female athymic NCr-nu/nu mice
# [8] = test system: human NCI-H460 lung tumor; test: H460 tumor growth after a single IV administration; format: in vivo; conditions: single iv injection at each compound's MTD; FIG. 7
# Procedure: Six-weeks-old female athymic nude mice were purchased from Charles River (Wilmington, Mass.) and acclimated in the laboratories prior to experimentation. […] The animals were observed daily and clinical signs were noted.
# Thirty-to-forty mg fragments of human NCI-H460 lung tumor were implanted sc in mice near the right axillary area using a 12-gauge trocar needle and allowed to grow. The day of tumor implantation was designated as day −7. Tumors were allowed to reach 100-234 mg in weight (100-234 mm^3 in size) before the start of treatment. A sufficient number of mice were implanted so that tumors in a weight range as narrow as possible were selected for the trial on the day of treatment initiation (day 7 after tumor implantation). […]
# The experiment consisted of 3 treatment groups of 36 mice per group plus an untreated group of 3 mice for a total of 39 mice on the day of treatment. […] The above ‘topotecan-equivalent’ concentrations were calculated based on the topotecan content for each compound. […]
# The sc tumors were measured and the animals were weighed twice weekly starting with the first day of treatment. Tumor volume was determined by caliper measurements (mm) and using the formula for an ellipsoid sphere: L×W^2/2=mm^3, where L and W refer to the larger and smaller perpendicular dimensions collected at each measurement. […]
molecule,measurement,setting,value
"CC[C@@]1(O)C(=O)OCc2c1cc1n(c2=O)Cc2cc3c(CN(C)C)c(O)ccc3nc2-1 [topotecan, (S)-10-[(dimethylamino)methyl]-4-ethyl-4,9-dihydroxy-1H-pyrano[3′,4′:6,7]indolizino[1,2-b]quinoline-3,14(4H,12H)-dione]",growth delay compared with PEG-topotecan at the same dosage,[1]; 1.0 mg/kg/dose,significantly greater
same,deaths,[1]; 1.0 mg/kg/dose iv q4d×3,without deaths
same,deaths,[1]; 2.5 mg/kg/dose iv q4d×3,without deaths
same,deaths,[1]; 10 mg/kg/dose iv q4d×3,one
same,detectability of topotecan in plasma,[2],undetectable beyond 24 hr post-injection
same,Median Days to 1000 mg,[3]; 7.5 mg/kg/inj iv Q4Dx3(14),38.5 days
same,Non-Specific Deaths,[3]; 7.5 mg/kg/inj iv Q4Dx3(14),0
same,Regressions (100%),[3]; 7.5 mg/kg/inj iv Q4Dx3(14),0
same,Tumor Free on Day 99,[3]; 7.5 mg/kg/inj iv Q4Dx3(14),0
same,Growth Delay (T-C),[3]; 7.5 mg/kg/inj iv Q4Dx3(14),4.4 days
same,Median Days to 1000 mg,[3]; 15 mg/kg/inj iv Q4Dx3(14),46.8 days
same,Non-Specific Deaths,[3]; 15 mg/kg/inj iv Q4Dx3(14),two
same,Regressions (100%),[3]; 15 mg/kg/inj iv Q4Dx3(14),0
same,Tumor Free on Day 99,[3]; 15 mg/kg/inj iv Q4Dx3(14),0
same,Non-Specific Deaths,"[3]; 15 mg/kg/inj iv Q4Dx3(14), listed as Top",2
same,Growth Delay (T-C),[3]; 15 mg/kg/inj iv Q4Dx3(14),12.7 days
same,Median Days to 1000 mg,[3]; 20 mg/kg/inj iv Q4Dx3(14),49.9 days
same,Non-Specific Deaths,[3]; 20 mg/kg/inj iv Q4Dx3(14),two
same,Regressions (100%),[3]; 20 mg/kg/inj iv Q4Dx3(14),0
same,Tumor Free on Day 99,[3]; 20 mg/kg/inj iv Q4Dx3(14),0
same,Non-Specific Deaths,"[3]; 20 mg/kg/inj iv Q4Dx3(14), listed as Top",2
same,Growth Delay (T-C),[3]; 20 mg/kg/inj iv Q4Dx3(14),15.8 days
same,inhibition of growth of HT29 human colon tumor xenografts,[3]; dosage of 7.5 mg/kg/inj iv Q4D×3,minimally effective
same,inhibition of growth of HT29 human colon tumor xenografts,[3]; dosages of 20 and 15 mg/kg/inj iv Q4D×3,effective
same,biological half life t1/2,[4]; 30 min iv,2.8 hours
same,MTD,[5],20 mg/kg
same,concentration at 5 day,[6],< 1000 ng/g
same,maximum average body weight loss,"[7]; iv Q4D×3, 5 mg/kg/inj",0%
same,maximum average body weight loss,"[7]; iv Q4D×3, 10 mg/kg/inj",0%
same,maximum tolerated dosage (MTD),"[7]; iv Q4D×3, not more than 10% deaths, no more than 20% average body weight loss",15 mg/kg/inj
same,deaths,"[7]; non-tumor-bearing mice, iv Q4D×3, dosages of 15, 10, and 5 mg/kg/inj",no deaths; also recorded: without deaths
same,tumor growth inhibition / delay,[8],only minimal tumor growth delay; also recorded: delayed modestly
camptothecin sodium,biological half life t1/2,[4]; bolus iv,15.3 hours

# — US20140371258A1 (priority 2010, published 2014)
